# Reference: BindingDB's records for patent US20250313563 (The Broad Institute, 2025)
# Several values for one entry are separate records, joined by “and”; a condition that tells them apart may be missing. Equal entries are not always repeated.
# How the values were obtained:
# [1] = molecular target: Glycogen synthase kinase-3 alpha (Homo sapiens, UniProt P49840); assay: TR-FRET Assay
# Outline: (§1)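 Signal is measured as TR-FRET between a terbium anti-phospho-Ser641 antibody and streptavidin-d2, added after an EDTA quench. Compounds are preincubated 30 min in assay buffer.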
# [2] = molecular target: Glycogen synthase kinase-3 beta (Homo sapiens, UniProt P49841); assay: TR-FRET Assay
# Outline: as §1
# Sequence of Glycogen synthase kinase-3 alpha (P49840 whole entry): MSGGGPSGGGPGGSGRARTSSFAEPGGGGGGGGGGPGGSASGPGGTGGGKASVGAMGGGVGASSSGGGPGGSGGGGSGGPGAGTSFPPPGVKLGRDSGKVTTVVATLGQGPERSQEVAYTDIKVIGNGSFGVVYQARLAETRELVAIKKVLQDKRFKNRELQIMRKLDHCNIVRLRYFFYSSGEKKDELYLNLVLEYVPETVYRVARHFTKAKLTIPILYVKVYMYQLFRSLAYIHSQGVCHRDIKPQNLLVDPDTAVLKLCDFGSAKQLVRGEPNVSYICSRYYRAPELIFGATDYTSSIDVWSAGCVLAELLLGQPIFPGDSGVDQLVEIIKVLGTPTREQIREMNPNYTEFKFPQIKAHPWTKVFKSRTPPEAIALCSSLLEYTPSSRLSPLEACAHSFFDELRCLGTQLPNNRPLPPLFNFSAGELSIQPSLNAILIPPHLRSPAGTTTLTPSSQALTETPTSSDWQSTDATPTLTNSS
# Sequence of Glycogen synthase kinase-3 beta (P49841 whole entry): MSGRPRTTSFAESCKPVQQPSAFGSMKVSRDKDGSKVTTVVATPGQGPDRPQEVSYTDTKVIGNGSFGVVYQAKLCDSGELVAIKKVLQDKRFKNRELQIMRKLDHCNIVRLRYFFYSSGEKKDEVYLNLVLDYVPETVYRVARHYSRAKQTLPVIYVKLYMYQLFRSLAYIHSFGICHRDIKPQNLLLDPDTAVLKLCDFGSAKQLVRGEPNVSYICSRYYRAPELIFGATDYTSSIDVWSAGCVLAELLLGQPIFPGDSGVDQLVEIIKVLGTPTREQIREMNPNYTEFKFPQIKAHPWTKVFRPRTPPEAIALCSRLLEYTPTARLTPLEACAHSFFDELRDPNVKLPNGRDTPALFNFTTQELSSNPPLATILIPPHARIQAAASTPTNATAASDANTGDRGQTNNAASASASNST
SMILES,IC50 [1],IC50 [2]
"CC[C@]1(c2cccc(-c3ccnc4ccc(OC)cc34)c2)C2=CN=NC2NC2=C1C(=O)NC(C)(C)C2 (stereo not given in full) [US20250313563, Compound 948518]",> 5 µM,> 5 µM
"CC[C@]1(c2cccc(C3=C4CC=C(F)C=C4N=CC3)c2)C2=CN=NC2NC2=C1C(=O)NC(C)(C)C2 (stereo not given in full) [US20250313563, Compound 948519]",> 5 µM,> 5 µM
"CC[C@]1(c2cccc(-c3ccnc(OC)c3F)c2)C2=CN=NC2NC2=C1C(=O)NC(C)(C)C2 (stereo not given in full) [US20250313563, Compound 948520]",0.1 to 1 µM,1 to 5 µM
"CC[C@@]1(c2cccc(-c3c(F)cncc3F)c2)C2=CN=NC2NC2=C1C(=O)NC(C)(C)C2 (stereo not given in full) [US20250313563, Compound 948525]",< 0.1 µM and 0.1 to 1 µM,< 0.1 µM and 1 to 5 µM
"CC[C@@]1(c2cccc(-c3ccnn3C)c2)C2=CN=NC2NC2=C1C(=O)NC1(CCOCC1)C2 (stereo not given in full) [US20250313563, Compound 948526]",1 to 5 µM,> 5 µM
"CC[C@@]1(c2cccc(-c3ccnc4ccc(OC)cc34)c2)C2=CN=NC2NC2=C1C(=O)NC(C)(C)C2 (stereo not given in full) [US20250313563, Compound 948527]",< 0.1 µM,< 0.1 µM
"CC[C@@]1(c2cccc(C3=C4CC=C(F)C=C4N=CC3)c2)C2=CN=NC2NC2=C1C(=O)NC(C)(C)C2 (stereo not given in full) [US20250313563, Compound 948528]",< 0.1 µM,0.1 to 1 µM
"CC[C@@]1(c2cccc(-c3ccnn3C)c2)C2=CN=NC2NC2=C1C(=O)N[C@]1(CCCOC1)C2 (stereo not given in full) [US20250313563, Compound 948529]",< 0.1 µM and 0.1 to 1 µM,0.1 to 1 µM and 1 to 5 µM
"CC[C@]1(c2cccc(-c3ccnc4ccc(Cl)cc34)c2)C2=CN=NC2NC2=C1C(=O)NC(C)(C)C2 (stereo not given in full) [US20250313563, Compound 948530]",0.1 to 1 µM,1 to 5 µM
"CC[C@@]1(c2cccc(-c3ccnc(OC)c3F)c2)C2=CN=NC2NC2=C1C(=O)NC(C)(C)C2 (stereo not given in full) [US20250313563, Compound 948531]",0.1 to 1 µM,> 5 µM
"CC[C@@]1(c2cccc(-c3c(F)cncc3OC)c2)C2=CN=NC2NC2=C1C(=O)CC(C)(C)[C@H]2F (stereo not given in full) [US20250313563, Compound 948547]",0.1 to 1 µM,1 to 5 µM
"CC[C@]1(c2cccc(-c3c(F)cncc3OC)c2)C2=C(N=NC2)NC2=C1C(=O)N(Cc1ccccc1)C2 [US20250313563, Compound 948549]",< 0.1 µM and 0.1 to 1 µM,< 0.1 µM and 1 to 5 µM
"CC[C@@]1(c2cccc(-c3ccnc4c3CCCC4)c2)C2=C(N=NC2)NC2=C1C(=O)N(Cc1ccccc1)C2 [US20250313563, Compound 948552]",0.1 to 1 µM,> 5 µM
"CCC1(c2cccc(C(F)(F)C(F)(F)F)c2)C2=CN=NC2NC2=C1C(=O)CC(C)(C)C2 (stereo not given) [US20250313563, Compound 948615]",< 0.1 µM,< 0.1 µM
"CCc1cnccc1-c1cccc([C@@]2(CC)C3=CN=NC3NC3=C2C(=O)NC(C)(C)C3)c1 (stereo not given in full) [US20250313563, Compound 948639]",< 0.1 µM,0.1 to 1 µM
"CC[C@]1(c2cccc(-c3ccncc3C)c2)C2=CN=NC2NC2=C1C(=O)N[C@]1(CCOC1)C2 (stereo not given in full) [US20250313563, Compound 948640]",< 0.1 µM,< 0.1 µM
"CC[C@]1(c2cccc(-c3ccncc3C3CC3)c2)C2=CN=NC2NC2=C1C(=O)NC(C)(C)C2 (stereo not given in full) [US20250313563, Compound 948642]",0.1 to 1 µM,1 to 5 µM
"CC[C@]1(c2cccc(-c3ccncc3OC3CC3)c2)C2=CN=NC2NC2=C1C(=O)NC(C)(C)C2 (stereo not given in full) [US20250313563, Compound 948643]",> 5 µM,> 5 µM
"CC[C@@]1(c2cccc(-c3ccncc3C)c2)C2=CN=NC2NC2=C1C(=O)N[C@@]1(CCOC1)C2 (stereo not given in full) [US20250313563, Compound 948644]",< 0.1 µM,< 0.1 µM
"CC[C@]1(c2cccc(-c3ccnc4cc(Cl)c(C)cc34)c2)C2=CN=NC2NC2=C1C(=O)NC(C)(C)C2 (stereo not given in full) [US20250313563, Compound 948645]",0.1 to 1 µM,> 5 µM
